Results reported in PubChem BioAssay AID2060885 (Molecular Pharmacology Branch, DTP, NCI, 2025).
pIC50: −log10 of the molar value.

Tested on: NCI-H23 complex spheroids with HUVEC/MSC, viability
Experiment: Anticancer human tumor NCI-H23 cell line growth inhibition [RAS];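 further: spheroids exposed to compound for 7 days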;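 on viability, T/C: 100% = DMSO vehicle control viability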
Conditions: for pIC50: curve of first compound; for viability, T/C: stronger effect = lower value
From the text: RAS pathway inhibitors in Combinations in Complex Spheroids
A high-throughput screen of multi-cell type tumor spheroids was designed to identify active combinations of RAS pathway inhibitors and targeted small molecules. Complex spheroids include a stromal component modeled by human endothelial cells (HUVEC) and fibroblasts modeled by human mesenchymal stem cells (MSCs). The concentration ranges selected for each drug and investigational agent were based upon clinically achievable concentrations if the clinical Cmax of the agent was known.
Compounds. The drugs and investigational agents: abemaciclib (NSC768073), cobimetinib (NSC768068), divarasib (GDC6063, NSC841802), docetaxel (NSC628503), GDC-1971 (RLY-1971, NSC841576), gemcitabine (NSC613327), inavolisib (NSC800729), ipatasertib (NSC767898), KB-0742 (NSC834161), MRTX-1133 (NSC836407), osimertinib (NSC779217), RMC-4630 (NSC839698), RMC-6236 (NSC851965), RMC-6291 (NSC852671), Ro-3306 (NSC812927), sapanisertib (NSC764658), SN-38 (NSC673596), staurosporine (NSC755774), SY5609 (NSC837396), and tovorafenib (DAY101, NSC766906), were obtained from the National Cancer Institute (NCI) Developmental Therapeutics Program Chemical Repository. The FDA-approved anticancer drug set is available from the NCI Developmental Therapeutics Program. […] The stock solutions were prepared in dimethyl sulfoxide (DMSO, Sigma-Aldrich, St. Louis, MO, cat. D2650) at 800-fold the tested concentration and stored at -70 degrees C prior to their use. All drugs and investigational agents were tested over a range starting from a high concentration at or near the clinical Cmax and decreasing in half-log increments. If the clinical Cmax for an agent had not been determined, the highest concentration tested was 10 microM.
Cell Culture. All cells were maintained in an incubator at 37 degrees C and 5% CO2 with 95% humidity. The PDC lines were cultured according to standard operating procedures established by the NCI PDMR. All PDCs were thawed and cultured in Matrigel-coated flasks prepared with a working solution of 1X Ham's F-12 nutrient mix, without supplementation (Invitrogen, Waltham, MA, cat. 11765054), 100 U/mL penicillin-streptomycin (Invitrogen, cat. 15140122), and 2.5% Matrigel (Corning Inc., Corning, NY, cat. 354248) for the first three passages. The 362531-283-R-J2-PDC and 782815-120-R-J1-PDC lines were cultured in 6C/Colon 1B media, which includes advanced DMEM/F-12 (Thermo Fisher Scientific, cat. 12634028), 10 mM HEPES (Thermo Fisher Scientific, cat. 15630080), 1X GlutaMAX supplement (Thermo Fisher Scientific, cat. 35050061), 0.1 mg/mL primocin (InvivoGen, San Diego, CA, cat. ant-pm-2), 10% defined fetal bovine serum, heat inactivated (HyClone Laboratories Inc., Logan, UT, cat. SH30070.03HI), 50% L-WRN conditioned media (ATCC, cat. CRL-3276), 1.25 mM N-Acetyl-L-cysteine (Sigma-Aldrich, cat. A9165), 10 mM nicotinamide (Sigma-Aldrich, cat. N0636), 1X B-27 supplement (Thermo Fisher Scientific, cat. 17504044), 1X N-2 supplement (Thermo Fisher Scientific, cat. 17502048), 50 ng/mL human EGF (Thermo Fisher Scientific, cat. PHG0311), and 10 microM Y-27632 dihydrochloride (Tocris Bioscience, cat. 1254). The K12877-001-R-J1-PDC line was cultured in 6I media, which includes all 6C/Colon 1B media plus 10 ng/mL human FGF-10 (PeproTech, cat. 100-26), 1 ng/mL human FGF-2 (PeproTech, cat. 100-18B), 1 µM prostaglandin E2 (Tocris Bioscience, cat. 2296), […] hydrocortisone (Sigma-Aldrich, cat. H4001), and […] bovine insulin (Sigma-Aldrich, cat. I6634). The K86415-001-R-J1-PDC line was cultured in 6D media, which includes all 6C/Colon 1B media components minus the L-WRN conditioned media. The 485176-168-R4-J1-PDC was cultured in PANC media, which includes all 6C/Colon 1B media plus 100 ng/mL human FGF-10 (PeproTech, cat. 100-26), 500 nM SB-431542 (Selleckchem, cat. S1067), and 10 nM gastrin (Tocris Bioscience, cat. 3006). […]

Structure (SMILES): CC(C)n1nc(-c2ccc3oc(N)nc3c2)c2c(N)ncnc21 + CCn1c(-c2cc(N3CCN(C)CC3)cnc2C(C)OC)c2c3cc(ccc31)-c1csc(n1)CC(NC(=O)C1CC1C)C(=O)N1CCCC(N1)C(=O)OCC(C)(C)C2
- pIC50 (second compound 0.000949 µM): > 9.50
- pIC50 (second compound 0.003 µM): > 9.50
- pIC50 (second compound 0.00949 µM): > 9.50
- pIC50 (second compound 0.03 µM): > 9.50
- pIC50 (second compound 0.0949 µM): > 9.50
- pIC50 (second compound 0.3 µM): > 9.50
- viability, T/C (second compound 0.000949 µM, first compound 0.000316 µM): 44.2%
- viability, T/C (second compound 0.000949 µM, first compound 0.001 µM): 41.7%
- viability, T/C (second compound 0.000949 µM, first compound 0.00316 µM): 24.1%
- viability, T/C (second compound 0.000949 µM, first compound 0.01 µM): 30%
- viability, T/C (second compound 0.000949 µM, first compound 0.0316 µM): 24.2%
- viability, T/C (second compound 0.000949 µM, first compound 0.1 µM): 13.5%
- viability, T/C (second compound 0.003 µM, first compound 0.000316 µM): 32.4%
- viability, T/C (second compound 0.003 µM, first compound 0.001 µM): 24.6%
- viability, T/C (second compound 0.003 µM, first compound 0.00316 µM): 25.8%
- viability, T/C (second compound 0.003 µM, first compound 0.01 µM): 21.6%
- viability, T/C (second compound 0.003 µM, first compound 0.0316 µM): 19%
- viability, T/C (second compound 0.003 µM, first compound 0.1 µM): 9.18%
- viability, T/C (second compound 0.00949 µM, first compound 0.000316 µM): 31.2%
- viability, T/C (second compound 0.00949 µM, first compound 0.001 µM): 26.8%
- viability, T/C (second compound 0.00949 µM, first compound 0.00316 µM): 24.1%
- viability, T/C (second compound 0.00949 µM, first compound 0.01 µM): 20%
- viability, T/C (second compound 0.00949 µM, first compound 0.0316 µM): 16.4%
- viability, T/C (second compound 0.00949 µM, first compound 0.1 µM): 11.4%
- viability, T/C (second compound 0.03 µM, first compound 0.000316 µM): 24.5%
- viability, T/C (second compound 0.03 µM, first compound 0.001 µM): 25.2%
- viability, T/C (second compound 0.03 µM, first compound 0.00316 µM): 22.7%
- viability, T/C (second compound 0.03 µM, first compound 0.01 µM): 19%
- viability, T/C (second compound 0.03 µM, first compound 0.0316 µM): 11.7%
- viability, T/C (second compound 0.03 µM, first compound 0.1 µM): 11.6%
- viability, T/C (second compound 0.0949 µM, first compound 0.000316 µM): 19.2%
- viability, T/C (second compound 0.0949 µM, first compound 0.001 µM): 19.4%
- viability, T/C (second compound 0.0949 µM, first compound 0.00316 µM): 19.2%
- viability, T/C (second compound 0.0949 µM, first compound 0.01 µM): 16.6%
- viability, T/C (second compound 0.0949 µM, first compound 0.0316 µM): 9.51%
- viability, T/C (second compound 0.0949 µM, first compound 0.1 µM): 11.2%
- viability, T/C (second compound 0.3 µM, first compound 0.000316 µM): 17.9%
- viability, T/C (second compound 0.3 µM, first compound 0.001 µM): 17%
- viability, T/C (second compound 0.3 µM, first compound 0.00316 µM): 16.4%
- viability, T/C (second compound 0.3 µM, first compound 0.01 µM): 13.4%
- viability, T/C (second compound 0.3 µM, first compound 0.0316 µM): 13.5%
- viability, T/C (second compound 0.3 µM, first compound 0.1 µM): 11.5%

Structure (SMILES): CC(C)n1nc(-c2ccc3oc(N)nc3c2)c2c(N)ncnc21 + C=CC(=O)N1CCN(c2nc(OCC3CCCN3C)nc3c(F)c(-c4nc(N)cc(C)c4C(F)(F)F)c(Cl)cc23)C(C)C1
- pIC50 (second compound 0.00316 µM): 8.49
- pIC50 (second compound 0.01 µM): 9.35
- pIC50 (second compound 0.0316 µM): > 9.50
- pIC50 (second compound 0.1 µM): > 9.50
- pIC50 (second compound 0.316 µM): > 9.50
- pIC50 (second compound 1 µM): > 9.50
- viability, T/C (second compound 0.00316 µM, first compound 0.000316 µM): 58.9%
- viability, T/C (second compound 0.00316 µM, first compound 0.001 µM): 68.7%
- viability, T/C (second compound 0.00316 µM, first compound 0.00316 µM): 45.9%
- viability, T/C (second compound 0.00316 µM, first compound 0.01 µM): 35.2%
- viability, T/C (second compound 0.00316 µM, first compound 0.0316 µM): 27.3%
- viability, T/C (second compound 0.00316 µM, first compound 0.1 µM): 17.7%
- viability, T/C (second compound 0.01 µM, first compound 0.000316 µM): 52.1%
- viability, T/C (second compound 0.01 µM, first compound 0.001 µM): 44.1%
- viability, T/C (second compound 0.01 µM, first compound 0.00316 µM): 35.5%
- viability, T/C (second compound 0.01 µM, first compound 0.01 µM): 25.7%
- viability, T/C (second compound 0.01 µM, first compound 0.0316 µM): 21.2%
- viability, T/C (second compound 0.01 µM, first compound 0.1 µM): 16.9%
- viability, T/C (second compound 0.0316 µM, first compound 0.000316 µM): 39.7%
- viability, T/C (second compound 0.0316 µM, first compound 0.001 µM): 43.7%
- viability, T/C (second compound 0.0316 µM, first compound 0.00316 µM): 28.2%
- viability, T/C (second compound 0.0316 µM, first compound 0.01 µM): 26.2%
- viability, T/C (second compound 0.0316 µM, first compound 0.0316 µM): 17.3%
- viability, T/C (second compound 0.0316 µM, first compound 0.1 µM): 16.9%
- viability, T/C (second compound 0.1 µM, first compound 0.000316 µM): 37.8%
- viability, T/C (second compound 0.1 µM, first compound 0.001 µM): 32.5%
- viability, T/C (second compound 0.1 µM, first compound 0.00316 µM): 26.3%
- viability, T/C (second compound 0.1 µM, first compound 0.01 µM): 23.8%
- viability, T/C (second compound 0.1 µM, first compound 0.0316 µM): 17.9%
- viability, T/C (second compound 0.1 µM, first compound 0.1 µM): 14.2%
- viability, T/C (second compound 0.316 µM, first compound 0.000316 µM): 30.6%
- viability, T/C (second compound 0.316 µM, first compound 0.001 µM): 38.3%
- viability, T/C (second compound 0.316 µM, first compound 0.00316 µM): 29.5%
- viability, T/C (second compound 0.316 µM, first compound 0.01 µM): 22.3%
- viability, T/C (second compound 0.316 µM, first compound 0.0316 µM): 17.1%
- viability, T/C (second compound 0.316 µM, first compound 0.1 µM): 15.8%
- viability, T/C (second compound 1 µM, first compound 0.000316 µM): 27.9%
- viability, T/C (second compound 1 µM, first compound 0.001 µM): 33.8%
- viability, T/C (second compound 1 µM, first compound 0.00316 µM): 32.2%
- viability, T/C (second compound 1 µM, first compound 0.01 µM): 25.9%
- viability, T/C (second compound 1 µM, first compound 0.0316 µM): 22.5%
- viability, T/C (second compound 1 µM, first compound 0.1 µM): 16.2%
